# Experimental data taken from patent publication US20260256792A1, “TREATMENT OF CHRONIC SPONTANEOUS URTICARIA BY ADMINISTERING (R)-2-[3-[4-AMINO-3-(2-FLUORO-4-PHENOXY-PHENYL)PYRAZOLO[3,4-D]PYRIMIDIN-1-YL]PIPERIDINE-1-CARBONYL]-4-METHYL-4-[4-(OXETAN-3-YL)PIPERAZIN-1-YL]PENT-2-ENENITRILE” (priority 2023, published 2026).
# Tested on: angioedema in CSU patients
# Assay: Phase 2 CSU study: angioedema activity score over 7 days (AAS7)
# Assay type: in vivo, human
# Set-up: AAS7, Median / AAS7 Change from baseline, Median: scale not given here
# From the text: The study comprises a 12 week, randomized, double-blind, placebo-controlled, multi-center, dose-ranging efficacy and safety phase, followed by a 40 week open label extension (OLE) phase (see FIG. 1). The study consists of three phases and an optional OLE phase. […] The weekly angioedema activity score (AAS7) was proposed as a tertiary endpoint. […] Patients were to complete the AAS using the e-diary. The e-diary was to be used once daily on the same time of each day recording of participant's answers to the angioedema activity score over 7 days (AAS7) questionnaire.
# [1] = 400 mg TID, Week 12, omalizumab-naïve, angioedema at baseline
# [2] = 400 mg TID, omalizumab-naïve population, angioedema at baseline
# [3] = End of Study, 400 mg TID, Incomplete Responders with angioedema at baseline, both values imputed
# [4] = Omalizumab-Naïve Population, 400 mg BID, End of Study
# [5] = Omalizumab-Naïve Population, 400 mg BID, Week 1
# [6] = Omalizumab-Naïve Population, 400 mg BID, Week 2
# [7] = Omalizumab-Naïve Population, 400 mg BID, Week 3
# [8] = Omalizumab-Naïve Population, 400 mg BID, Week 4
# [9] = Omalizumab-Naïve Population, 400 mg BID, Week 5
# [10] = Omalizumab-Naïve Population, 400 mg BID, Week 6
# [11] = Omalizumab-Naïve Population, 400 mg BID, Week 7
# [12] = Omalizumab-Naïve Population, 400 mg BID, Week 8
# [13] = Omalizumab-Naïve Population, 400 mg BID, Week 9
structure (smiles),measurement,setting,value
"CC(C)(C=C(C#N)C(=O)N1CCC[C@@H](n2nc(-c3ccc(Oc4ccccc4)cc3F)c3c(N)ncnc32)C1)N1CCN(C2COC2)CC1 [rilzabrutinib, (R)-2-[3-[4-amino-3-(2-fluoro-4-phenoxy-phenyl)pyrazolo[3,4-d]pyrimidin-1-yl]piperidine-1-carbonyl]-4-methyl-4-[4-(oxetan-3-yl)piperazin-1-yl]pent-2-enenitrile]",AAS7 Post-baseline Mean (SD),[1],7.10 (12.86)
same,"Participants with AAS7 = 0, Responder n (%)",[1],14 (60.9) n (%)
same,LS mean change from baseline in AAS7 at Week 12,[2],−44.04
same,decrease from baseline in AAS7 at Week 12,[2],84.63%
same,patients achieving angioedema score (AAS7) of 0,"400 mg TID, within one week of initiating treatment, omalizumab-naïve",30.4%
same,"AAS7, Mean (SD)",[3],30.42 (14.73)
same,"AAS7, Median",[3],30.42
same,"AAS7 Change from baseline, Mean (SD)",[3],1.50 (2.12)
same,"AAS7 Change from baseline, Median",[3],1.50
same,"AAS7 Percent change from baseline, Median",[3],8.82
same,"AAS7, Mean (SD)",[4],27.33 (24.01)
same,"AAS7, Median",[4],37.00
same,"AAS7 Change from baseline, Mean (SD)",[4],−38.33 (25.03)
same,"AAS7 Change from baseline, Median",[4],−37.00
same,"AAS7 Percent change from baseline, Mean (SD)",[4],−57.91 (38.75) %
same,"AAS7 Percent change from baseline, Median",[4],−50.00%
same,"AAS7 Change from baseline, Mean (SD)",[5],−21.44 (18.46)
same,"AAS7 Change from baseline, Median",[5],−22.00
same,"AAS7 Percent change from baseline, Mean (SD)",[5],62.04 (42.40) %
same,"AAS7 Percent change from baseline, Median",[5],−82.71%
same,"AAS7, Median",[6],14.00
same,"AAS7 Change from baseline, Mean (SD)",[6],−22.60 (18.31)
same,"AAS7 Change from baseline, Median",[6],−23.00
same,"AAS7 Percent change from baseline, Mean (SD)",[6],−45.07 (90.72) %
same,"AAS7 Percent change from baseline, Median",[6],−77.03%
same,"AAS7, Median",[7],6.50
same,"AAS7 Change from baseline, Mean (SD)",[7],−30.63 (24.46)
same,"AAS7 Change from baseline, Median",[7],−25.88
same,"AAS7 Percent change from baseline, Mean (SD)",[7],−45.93 (125.55) %
same,"AAS7 Percent change from baseline, Median",[7],−89.45%
same,"AAS7 Change from baseline, Mean (SD)",[8],−30.05 (20.80)
same,"AAS7 Change from baseline, Median",[8],−28.00
same,"AAS7 Percent change from baseline, Mean (SD)",[8],−53.69 (109.03) %
same,"AAS7 Percent change from baseline, Median",[8],−82.09%
same,"AAS7, Median",[9],0.00
same,"AAS7 Change from baseline, Mean (SD)",[9],−30.86 (24.37)
same,"AAS7 Change from baseline, Median",[9],−24.00
same,"AAS7 Percent change from baseline, Mean (SD)",[9],−66.40 (54.16) %
same,"AAS7 Percent change from baseline, Median",[9],−100.00%
same,"AAS7, Median",[10],3.00
same,"AAS7 Change from baseline, Mean (SD)",[10],−31.58 (23.39)
same,"AAS7 Change from baseline, Median",[10],−24.00
same,"AAS7 Percent change from baseline, Mean (SD)",[10],−70.72 (39.56) %
same,"AAS7 Percent change from baseline, Median",[10],−92.19%
same,"AAS7, Median",[11],4.67
same,"AAS7 Change from baseline, Mean (SD)",[11],−33.54 (24.64)
same,"AAS7 Change from baseline, Median",[11],−30.00
same,"AAS7 Percent change from baseline, Mean (SD)",[11],−68.05 (40.33) %
same,"AAS7 Percent change from baseline, Median",[11],−88.60%
same,"AAS7, Median",[12],0.00
same,"AAS7 Change from baseline, Mean (SD)",[12],−36.21 (24.67)
same,"AAS7 Change from baseline, Median",[12],−32.00
same,"AAS7 Percent change from baseline, Mean (SD)",[12],−74.90 (43.31) %
same,"AAS7 Percent change from baseline, Median",[12],−100.00%
same,"AAS7, Median",[13],0.00
same,"AAS7 Change from baseline, Mean (SD)",[13],−34.83 (26.07)
same,"AAS7 Change from baseline, Median",[13],−32.00
same,"AAS7 Percent change from baseline, Mean (SD)",[13],−67.10 (66.88) %
same,"AAS7 Percent change from baseline, Median",[13],−100.00%
